Results as given in US20150305333A1, “USE OF GLUCOSAMINE AMIDES AS PLANT GROWTH AND YIELD ENHANCERS” (PIONEER HI-BRED INTERNATIONAL, INC., priority 2012, published 2015).

How the values were obtained:
[1] = system: Shepody potatoes (Solanum tuberosum); experiment: Potato field trial 2010: emergence, flowering, marketable yield; format: in vivo; details: for Marketable Potato Yield for One Row of Plot: one 8 m row, fresh weight
Procedure: A potato field trial was conducted to evaluate the effects of NPG on plant emergence, flowering and yield in Shepody potatoes (Solanum tuberosum) planted near Thorndale, Ontario, Canada, in 2010. Seed treatments included an Untreated Control, three concentrations of NPG and three concentrations of an LCO derived from Bradyrhizobium japonicum to serve as a positive control. The LCO was provided by Dr. Don Smith (McGill University, Montreal, Canada) using the basic method described in Soulemanov, A., et al., in Microbiol. Res., 157: 25-28 (2005). Aqueous solutions of NPG and LCO were applied at 10^−6M, 10^−7M and 10^−8M to seed pieces using a spray nozzle and left to soak on a plastic sheet for 20 minutes. The seed pieces were beginning to sprout when planted on June 8th in a loam composed of 41% sand, 39% silt and 20% clay and 4.5% organic matter.
(§1) Potatoes were planted at a rate of 33,300 seed pieces/ha to a depth of 20 cm and hilled using a tractor mounted potato hiller. Weeds were controlled using three L/ha of 40.6 wt % linuron. Insects were controlled using 250 ml/ha 18.4 wt % chlorantraniprole, and disease was controlled using a tank mix of 1.6 kg/ha 75 wt % mancozeb and 225 g/ha 60 wt % cymoxanil fungicides. Before harvest, plants were sprayed twice (seven days apart) with 39.5 wt % diquat dibromide herbicide at a rate of 2 L/ha. All of the products used are industry standards and representative of what is used in commercial production.
The trial was conducted using a randomized complete block design with a plot size of 2 m by 8 m with a 100 cm row spacing, 30 cm plant spacing and four replications Due to wet weather, the soil was damp and cloddy during the planting and hilling process.
Marketable potato yield was determined by harvesting one entire 8 m row of the plot (Table 3). The Untreated Control row with the highest emergence was harvested. Yields were not corrected for differences in emergence rates. The 10^−6 M and 10^−7 M NPG treatments and the 10^−8 M LCO treatment provided a statistically significant increase in marketable fresh weight yield compared to the Untreated Control.

Superior potatoes = experiment: Potato field trial 2011: emergence, flowering, vigor, biomass; format: in vivo; details: for Crop Vigor (1-5 Scale): 3=same as untreated check, 5=visually superior; for Plant Biomass: 117 DAP, above ground
Procedure: Seed treatments included an Untreated Control, NPG applied as a seed treatment, and NPG applied as a seed treatment followed by two foliar applications. Aqueous solutions of NPG were applied at a 10^−7 M concentration to seed pieces using a spray nozzle and left to soak on a plastic sheet for 20 min.
Foliar NPG applications were performed 36 and 45 days after planting. Plants were sprayed using a four-nozzle hollow-cone boom containing ceramic disks and CO2 propellant at a speed of 4.5 km/h and 40 psi. The 36 day application utilized a 2.0 L mix size and spray rate of 200 L/ha water volume. The 45 day application utilized a 3.0 L mix size and spray rate of 300 L/ha water volume. Seeds pieces designated for use as the Untreated Control also received the fungicide maintenance treatment.
The seed pieces were beginning to sprout when planted on June 8th in a loam composed of 34% sand, 48% silt and 18% clay and 2.9% organic matter.
as §1, with “25,000” for “33,300”, “3” for “three”, “chlorantraniliprole” for “chlorantraniprole,”, “80 g/ha 70 wt % acetamiprid insecticides. Disease” for “disease”, “mancozeb M” for “mancozeb”, “products” for “products used”
The trial was conducted using a randomized complete block design with a plot size of 2 m by 8 m with a 100 cm row spacing, 30 cm plant spacing and four replications. Due to wet weather, the soil was damp and cloddy during the planting and hilling process.
Treatments were compared on a “Vigor Scale” of 1 to 5 as follows:
Potato Plant Biomass was determined at 117 DAP by harvesting five plants above ground level from each plot (Table 7).

[2] = 10^−7M seed treatment + Foliar, 20 DAP
[3] = 10^−7M seed treatment + Foliar, 28 DAP
[4] = 10^−7M seed treatment + Foliar, 40 DAP

CCCCCCC=CCCCCCCCC(=O)NC1C(OC)OC(CO)C(O)C1O [NPG, Methyl 2-deoxy-2-N-(hexadece-9,10-cis-eneoyl)-β-D-glucopyranoside]
Potato Emergence ([1]; 10^−6M seed piece treatment, 15 DAP): 16b % | Potato Emergence ([1]; 10^−6M seed piece treatment, 17 DAP): 41b % | Potato Emergence ([1]; 10^−6M seed piece treatment, 21 DAP): 68c % | Potato Emergence ([1]; 10^−6M seed piece treatment, 29 DAP): 72c % | Potato Flowering ([1]; 10^−6M seed piece treatment, 42 DAP): 19a % | Potato Flowering ([1]; 10^−6M seed piece treatment, 50 DAP): 53ab % | Marketable Potato Yield for One Row of Plot ([1]; 10^−6M seed piece treatment): 17.92b Kg/Plot | Potato Emergence ([1]; 10^−7M seed piece treatment, 15 DAP): 9ab % | Potato Emergence ([1]; 10^−7M seed piece treatment, 17 DAP): 30ab % | Potato Emergence ([1]; 10^−7M seed piece treatment, 21 DAP): 48b % | Potato Emergence ([1]; 10^−7M seed piece treatment, 29 DAP): 52b % | Potato Flowering ([1]; 10^−7M seed piece treatment, 42 DAP): 20a % | Potato Flowering ([1]; 10^−7M seed piece treatment, 50 DAP): 47ab % | Marketable Potato Yield for One Row of Plot ([1]; 10^−7M seed piece treatment): 16.05b Kg/Plot | Potato Emergence ([1]; 10^−8M seed piece treatment, 15 DAP): 13ab % | Potato Emergence ([1]; 10^−8M seed piece treatment, 17 DAP): 30ab % | Potato Emergence ([1]; 10^−8M seed piece treatment, 21 DAP): 45b % | Potato Emergence ([1]; 10^−8M seed piece treatment, 29 DAP): 55b % | Potato Flowering ([1]; 10^−8M seed piece treatment, 42 DAP): 11a % | Potato Flowering ([1]; 10^−8M seed piece treatment, 50 DAP): 54ab % | Marketable Potato Yield for One Row of Plot ([1]; 10^−8M seed piece treatment): 13.80ab Kg/Plot | Potato Emergence (Superior potatoes; [2]): 36a % | Crop Vigor (1-5 Scale) (Superior potatoes; [2]): 4.6b | Potato Emergence (Superior potatoes; [3]): 38a % | Crop Vigor (1-5 Scale) (Superior potatoes; [3]): 3.9a | Potato Flowering (Superior potatoes; [4]): 22b % | Crop Vigor (1-5 Scale) (Superior potatoes; [4]): 3.6a | Crop Vigor (1-5 Scale) (Superior potatoes; 10^−7M seed treatment + Foliar, 49 DAP): 4.1c | Plant Biomass (Superior potatoes; 10^−7M seed treatment + Foliar): 2.56a kg/5 Plants | Potato Emergence (Superior potatoes; 10^−7M seed treatment, 20 DAP): 30a % | Crop Vigor (1-5 Scale) (Superior potatoes; 10^−7M seed treatment, 20 DAP): 2.9a | Potato Emergence (Superior potatoes; 10^−7M seed treatment, 28 DAP): 39a % | Crop Vigor (1-5 Scale) (Superior potatoes; 10^−7M seed treatment, 28 DAP): 2.9a | Potato Flowering (Superior potatoes; 10^−7M seed treatment, 40 DAP): 0.0a % | Crop Vigor (1-5 Scale) (Superior potatoes; 10^−7M seed treatment, 40 DAP): 3.1a | Crop Vigor (1-5 Scale) (Superior potatoes; 10^−7M seed treatment, 49 DAP): 3.5b | Plant Biomass (Superior potatoes; 10^−7M seed treatment): 2.35a kg/5 Plants
